Measurements: BigSolDB 2.1

O=c1cc(-c2ccccc2)oc2cc(O)cc(O)c12
solubility (mole fraction)
Settings	in DMF	in acetone	in ethanol	in ethyl acetate	in isopropanol	in methanol	in n-butanol	in n-hexane	in n-propanol	in water
293.2 K	0.01	0.00128	0.000455	0.000716	0.000512	0.000226	0.000586	1.4e-07	0.000482	4.61e-09
298.2 K	0.0131	0.00143	0.000505	0.00082	0.000614	0.000238	0.000663	2.95e-07	0.000569	8.63e-09
303.2 K	0.0152	0.00161	0.000637	0.000893	0.000707	0.000299	0.000833	3.8e-07	0.000724	1.26e-08
308.2 K	0.0229	0.00176	0.000709	0.00101	0.000836	0.000324	0.000981	4.5e-07	0.000837	2.57e-08
313.2 K	0.0264	0.00205	0.000822	0.00113	0.00104	0.000406	0.00115	6.78e-07	0.000971	3.96e-08
318.2 K	0.0328	0.00226	0.000903	0.00134	0.00121	0.000453	0.00138	1.08e-06	0.00123	4.82e-08
323.2 K	0.0408	0.00243	0.00113	0.00144	0.0014	0.000576	0.0016	1.25e-06	0.00147	8.41e-08
328.2 K	0.0479	0.00281	0.00144	0.00163	0.00185	0.000711	0.00195	1.7e-06	0.0017	1.28e-07
333.2 K	0.0568	–	0.00171	0.00176	0.00213	0.000813	0.00229	2.21e-06	0.00195	1.88e-07
